# Reference: patent publication US20240376085A1 (Janssen Pharmaceutica NV, priority 2021, published 2024)
# Experiments:
# [1] = tested on: IL-17A-induced G-CSF production in human normal keratinocyte (NHK); test: NHK assay: IL-17A-induced G-CSF production in normal human keratinocytes; assay type: cell-based; conditions: Homo sapiens, Keratinocyte, 24 h, IL-17A 5 ng/mL, average if tested more than once
# Procedure, shortened: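 IC50 derives from G-CSF in supernatants, quantified by HTRF from a standard curve, with CellTiter-Glo viability compared to DMSO control. Before a 24 h, 37°C culture of normal human keratinocytes at 3000–4000 cells/well, compound dilutions were preincubated 1 h at rt with human IL-17A (5 ng/mL final), with 0.2% DMSO and 5% FBS.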
# [2] = target: T1, IL-17A : IL-17RA binding (Homo sapiens, UniProt Q16552, K93Q); test: IL-17A(FLAG-tagged):IL-17RA(His-tagged) binding disruption Eu-HTRF assay, Protocol 1; conditions: FLAG-IL-17A 2.5 nM at 2x final concentration; average if tested more than once
# T1 construct: Name: IL-17A-Flag
# Procedure, shortened: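 IC50 came from a one-site competition fit of the acceptor/donor (665/620 nm) HTRF ratio. His-tagged IL-17RA, Eu-anti-FLAG and D2-anti-His were added after a 1 h rt compound preincubation with FLAG-tagged IL-17A dimer in PBS/0.01% Triton X-100, followed by 2 h at rt before reading.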
# T1 sequence (Q16552 with tags, fused parts or gaps K93Q): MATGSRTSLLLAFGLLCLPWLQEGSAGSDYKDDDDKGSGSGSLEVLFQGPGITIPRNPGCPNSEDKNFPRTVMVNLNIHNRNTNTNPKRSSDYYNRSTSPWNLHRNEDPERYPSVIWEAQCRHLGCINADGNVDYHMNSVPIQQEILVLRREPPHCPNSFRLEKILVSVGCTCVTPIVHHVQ
Structure (SMILES),IC50 [2],IC50 [1]
"C[C@@H](NC(=O)CC(C(F)(F)F)C(F)(F)F)c1ccc2[nH]c([C@@H](NC(=O)c3ccnn3C)C3CCC(F)(F)CC3)nc2c1 [Example 116, N—((S)-(4,4-Difluorocyclohexyl)(5-((R)-1-(4,4,4-trifluoro-3-(trifluoromethyl)butanamido)ethyl)-1H-benzo[d]imidazol-2-yl)methyl)-1-methyl-1H-pyrazole-5-carboxamide]",50 to 100 nM,< 50 nM
"C[C@@H](NC(=O)CC(C)(C)C)c1ccc2[nH]c([C@@H](NC(=O)c3ccnn3C)C3CCC(F)(F)CC3)nc2c1 [Example 117, N—((S)-(4,4-Difluorocyclohexyl)(5-((R)-1-(3,3-dimethylbutanamido)ethyl)-1H-benzo[d]imidazol-2-yl)methyl)-1-methyl-1H-pyrazole-5-carboxamide]",> 100 nM,> 100 nM
"C[C@@H](NC(=O)CC1CC(F)(F)C1)c1ccc2[nH]c([C@@H](NC(=O)c3ccnn3C)C3CCC(F)(F)CC3)nc2c1 [Example 119, N—((S)-(5-((R)-1-(2-(3,3-Difluorocyclobutyl)acetamido)ethyl)-1H-benzo[d]imidazol-2-yl)(4,4-difluorocyclohexyl)methyl)-1-methyl-1H-pyrazole-5-carboxamide]",> 100 nM,< 50 nM
"C[C@@H](NC(=O)CCC(F)(F)F)c1ccc2nc([C@@H](NC(=O)c3ccccc3)C3CCC(F)(F)CC3)[nH]c2c1 [Example 120, N—((S)-(4,4-Difluorocyclohexyl)(6-((R)-1-(4,4,4-trifluorobutanamido)ethyl)-1H-benzo[d]imidazol-2-yl)methyl)benzamide]",> 100 nM,50 to 100 nM
"C[C@@H](NC(=O)CCC(F)(F)F)c1ccc2nc([C@@H](NC(=O)c3ccnn3CCC(F)(F)F)C3CCC(F)(F)CC3)[nH]c2c1 [Example 121, N—((S)-(4,4-Difluorocyclohexyl)(6-((R)-1-(4,4,4-trifluorobutanamido)ethyl)-1H-benzo[d]imidazol-2-yl)methyl)-1-(3,3,3-trifluoropropyl)-1H-pyrazole-5-carboxamide]",> 100 nM,< 50 nM
"C[C@@H](NC(=O)CCC(F)(F)F)c1ccc2nc([C@@H](NC(=O)c3cc(F)ccc3F)C3CCC(F)(F)CC3)[nH]c2c1 [Example 123, N—((S)-(4,4-Difluorocyclohexyl)(6-((R)-1-(4,4,4-trifluorobutanamido)ethyl)-1H-benzo[d]imidazol-2-yl)methyl)-2,5-difluorobenzamide]",> 100 nM,> 100 nM
"CC(C)n1nccc1C(=O)N[C@H](c1nc2cc([C@@H](C)NC(=O)CC(C(F)(F)F)C(F)(F)F)ccc2[nH]1)C1CCC(F)(F)CC1 [Example 125, N—((S)-(4,4-Difluorocyclohexyl)(5-((R)-1-(4,4,4-trifluoro-3-(trifluoromethyl)butanamido)ethyl)-1H-benzo[d]imidazol-2-yl)methyl)-1-isopropyl-1H-pyrazole-5-carboxamide]",> 100 nM,< 50 nM
"C[C@@H](NC(=O)CC(C(F)(F)F)C(F)(F)F)c1ccc2[nH]c([C@@H](NC(=O)c3ccnn3CCC(F)(F)F)C3CCC(F)(F)CC3)nc2c1 [Example 126, N—((S)-(4,4-Difluorocyclohexyl)(5-((R)-1-(4,4,4-trifluoro-3-(trifluoromethyl)butanamido)ethyl)-1H-benzo[d]imidazol-2-yl)methyl)-1-(3,3,3-trifluoropropyl)-1H-pyrazole-5-carboxamide]",> 100 nM,50 to 100 nM
"CCn1nccc1C(=O)N[C@H](c1nc2cc([C@@H](C)NC(=O)CC(C(F)(F)F)C(F)(F)F)ccc2[nH]1)C1CCC(F)(F)CC1 [Example 127, N—((S)-(4,4-Difluorocyclohexyl)(5-((R)-1-(4,4,4-trifluoro-3-(trifluoromethyl)butanamido)ethyl)-1H-benzo[d]imidazol-2-yl)methyl)-1-ethyl-1H-pyrazole-5-carboxamide]",50 to 100 nM,< 50 nM
"C[C@@H](NC(=O)CC(C(F)(F)F)C(F)(F)F)c1ccc2[nH]c([C@@H](NC(=O)c3ccnn3CC(F)(F)F)C3CCC(F)(F)CC3)nc2c1 [Example 129, N—((S)-(4,4-Difluorocyclohexyl)(5-((R)-1-(4,4,4-trifluoro-3-(trifluoromethyl)butanamido)ethyl)-1H-benzo[d]imidazol-2-yl)methyl)-1-(2,2,2-trifluoroethyl)-1H-pyrazole-5-carboxamide]",> 100 nM,50 to 100 nM

# Second part, led by results:
IC50 [2],Structure (SMILES),IC50 [1]
> 100 nM,"C[C@@H](NC(=O)CCC(F)(F)F)c1ccc2[nH]c([C@@H](NC(=O)C3CC34CC4)C3CCC(F)(F)CC3)nc2c1 (stereo partly drawn) [Example 110, N—((S)-(4,4-Difluorocyclohexyl)(5-((R)-1-(4,4,4-trifluorobutanamido)ethyl)-1H-benzo[d]imidazol-2-yl)methyl)spiro[2.2]pentane-1-carboxamide]",> 100 nM
> 100 nM,"C[C@@H](NC(=O)CCC(F)(F)F)c1ccc2[nH]c([C@@H](NC(=O)C3CC34CCC4)C3CCC(F)(F)CC3)nc2c1 (stereo partly drawn) [Example 111, N—((S)-(4,4-Difluorocyclohexyl)(5-((R)-1-(4,4,4-trifluorobutanamido)ethyl)-1H-benzo[d]imidazol-2-yl)methyl)spiro[2.3]hexane-1-carboxamide]",> 100 nM
> 100 nM,"C[C@@H](NC(=O)CCC(F)(F)F)c1ccc2[nH]c([C@@H](NC(=O)C34CC(C3)C4)C3CCC(F)(F)CC3)nc2c1 [Example 112, N—((S)-(4,4-Difluorocyclohexyl)(5-((R)-1-(4,4,4-trifluorobutanamido)ethyl)-1H-benzo[d]imidazol-2-yl)methyl)bicyclo[1.1.1]pentane-1-carboxamide]",> 100 nM
> 100 nM,"CC(C)C(=O)N[C@H](c1nc2cc([C@@H](C)NC(=O)CCC(F)(F)F)ccc2[nH]1)C1CCC(F)(F)CC1 [Example 115, N—((R)-1-(2-((S)-(4,4-Difluorocyclohexyl)(isobutyramido)methyl)-1H-benzo[d]imidazol-5-yl)ethyl)-4,4,4-trifluorobutanamide]",> 100 nM
> 100 nM,"C[C@@H](NC(=O)CCC(F)(F)F)c1ccc2[nH]c([C@@H](NC(=O)c3ccnn3C)C3CCC(F)(F)CC3)nc2c1 [Example 118, N—((S)-(4,4-Difluorocyclohexyl)(5-((R)-1-(4,4,4-trifluorobutanamido)ethyl)-1H-benzo[d]imidazol-2-yl)methyl)-1-methyl-1H-pyrazole-5-carboxamide]",50 to 100 nM
> 100 nM,"C[C@H](NC(=O)CCC(F)(F)F)c1ccc2[nH]c([C@@H](NC(=O)c3ccnn3CCC(F)(F)F)C3CCC(F)(F)CC3)nc2c1 [Example 124, N—((S)-(4,4-Difluorocyclohexyl)(5-((S)-1-(4,4,4-trifluorobutanamido)ethyl)-1H-benzo[d]imidazol-2-yl)methyl)-1-(3,3,3-trifluoropropyl)-1H-pyrazole-5-carboxamide]",> 100 nM
> 100 nM,"C[C@@H](NC(=O)CCC(F)(F)F)c1ccc2[nH]c([C@@H](NC(=O)c3ccnn3CC(F)(F)F)C3CCC(F)(F)CC3)nc2c1 [Example 128, N—((S)-(4,4-Difluorocyclohexyl)(5-((R)-1-(4,4,4-trifluorobutanamido)ethyl)-1H-benzo[d]imidazol-2-yl)methyl)-1-(2,2,2-trifluoroethyl)-1H-pyrazole-5-carboxamide]",> 100 nM
